Data set [1] deals with T1, Cannabinoid receptor 1 (Homo sapiens, UniProt P21554). The data set is described as follows: Positive allosteric modulation of human CB1 receptor expressed in CHOK1 cells assessed as increase in CP55940-induced beta-arrestin recruitment at 1 uM preincubated for 30 mins followed by CP55940 addition and measured after 90 to 180 mins by PathHunter assay relative to CP55940. In kind it is cell-based.

A short description of data set [2]: Half life in human liver microsomes at 3 uM in presence of NADPH by LC-MS/MS analysis. In kind it is ADME, Microsome. A general note: Microsomes from liver hold many membrane-bound enzymes, among them those of drug oxidation.
Data set [3] deals with T1, Cannabinoid receptor 1. In words: Positive allosteric modulation of human CB1 receptor expressed in CHOK1 cells assessed as increase in CP55940-induced beta-arrestin recruitment at 1000 nM preincubated for 30 mins followed by CP55940 addition and measured after 90 to 180 mins by PathHunter assay relative to CP55940. In kind it is cell-based. Background: Recruitment of arrestin is a read-out of receptor activation apart from second messengers.

A short description of data set [4]: Half life in rat liver microsomes at 3 uM in presence of NADPH by LC-MS/MS analysis. In kind it is ADME, Microsome.
For data set [5], the target named is T1, Cannabinoid receptor 1. In words: Agonist activity at human CB1 receptor expressed in CHOK1 cells assessed as induction of beta-arrestin recruitment measured after 30 mins by PathHunter assay. In kind it is cell-based.
Data set [6] deals with T1, Cannabinoid receptor 1. The data set is described as follows: Positive allosteric modulation of human CB1 receptor expressed in CHOK1 cells assessed as increase in CP55940-induced beta-arrestin recruitment preincubated for 30 mins followed by CP55940 addition and measured after 90 to 180 mins by PathHunter assay. In kind it is cell-based.

Each structure is given as a SMILES string.

T1 sequence (P21554 whole entry): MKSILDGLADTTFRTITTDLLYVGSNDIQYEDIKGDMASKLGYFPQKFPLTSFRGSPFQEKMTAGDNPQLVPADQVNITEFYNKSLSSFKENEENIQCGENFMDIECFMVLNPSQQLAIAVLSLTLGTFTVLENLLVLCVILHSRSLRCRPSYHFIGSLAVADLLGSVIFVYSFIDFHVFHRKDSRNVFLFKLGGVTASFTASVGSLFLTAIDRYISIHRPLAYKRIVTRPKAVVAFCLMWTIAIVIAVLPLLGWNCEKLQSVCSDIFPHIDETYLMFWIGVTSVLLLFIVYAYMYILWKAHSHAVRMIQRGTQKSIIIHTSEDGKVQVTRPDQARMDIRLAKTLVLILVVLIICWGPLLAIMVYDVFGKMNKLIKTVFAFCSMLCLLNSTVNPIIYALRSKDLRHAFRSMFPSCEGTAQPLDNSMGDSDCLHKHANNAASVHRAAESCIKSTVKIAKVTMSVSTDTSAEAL

For the compound `CC(C)CN(C(=O)C(F)(F)F)c1c(-c2ccccc2)[nH]c2ccccc12`, on Cannabinoid receptor 1 [1], the Activity came out at 50%.

For the compound `O=C(N(CC1CC1)c1c(-c2ccccc2)[nH]c2ccccc12)C(F)(F)F`, the Activity at Cannabinoid receptor 1 [1] is 50%.

Consider `Cc1ccc2c(C(c3cccs3)C(C#N)C#N)c(-c3ccccc3)[nH]c2c1` (racemic), for which the t1/2 turned out to be 31.2 min in data set [2] and 4.9 min in data set [4]. For the same compound, the Activity on Cannabinoid receptor 1 [3] is more than 50%.

`N#Cc1ccc2[nH]c(C3CCCCC3)c(C(C[N+](=O)[O-])c3cccs3)c2c1` (racemic): on Cannabinoid receptor 1 [1], the Activity is less than 50%. The figures for the t1/2 in data set [2] and in data set [4] were 21.4 min and 3.8 min, respectively.

As for `O=C(O)CC(c1ccccc1)c1c(-c2ccccc2)[nH]c2ccccc12` (racemic) [listing 1 of 2 here], the t1/2 in data set [2] is recorded as 62.7 min.

Consider `O=[N+]([O-])CC(c1cccs1)c1c(-c2ccccc2)[nH]c2cc(C(F)(F)F)ccc12` (racemic), for which the t1/2 in data set [2] is recorded as 30.7 min; in data set [4], 15.6 min. In addition, the EC50 (as a rule, the concentration giving half of the maximal effect) on Cannabinoid receptor 1 [5] came to 974 nM; at Cannabinoid receptor 1 [6], 284 nM.

Regarding `N#CCC(c1ccccc1)c1c(-c2ccccc2)[nH]c2cc(Cl)ccc12` (racemic), the t1/2 in data set [2] came to 43.2 min; in data set [4], 22.5 min. The values for the EC50 on Cannabinoid receptor 1 [5] and at Cannabinoid receptor 1 [6] were 2350 nM and 1110 nM, respectively.

As for `N#CC(C#N)C(c1ccccc1)c1c(-c2ccccc2)[nH]c2cc(Cl)ccc12` (racemic), the Activity on Cannabinoid receptor 1 [1] is less than 50%. Further, the results for the t1/2 in data set [2] and in data set [4] were 29.6 min and 13.5 min, respectively.

Consider `Cc1ccc2c(C(C[N+](=O)[O-])c3cccs3)c(-c3ccc(Cl)cc3)[nH]c2c1` (racemic), for which, on Cannabinoid receptor 1 [1], the Activity was less than 50%. Moreover, the values for the t1/2 in data set [2] and in data set [4] were 24.2 min and 9.8 min, respectively.

Consider `OC(C(c1ccccc1)c1c(-c2ccccc2)[nH]c2ccccc12)C(F)(F)F` (racemic), for which the Activity on Cannabinoid receptor 1 [1] lay within 30 to 50%. The t1/2 in data set [2] came to 39.4 min; in data set [4] it was 18.2 min.

With `N#Cc1ccc2[nH]c(-c3ccccc3)c(C(C[N+](=O)[O-])c3cccs3)c2c1` (racemic), the Activity on Cannabinoid receptor 1 [1] is less than 50%. Moreover, the values for the t1/2 in data set [2] and in data set [4] were 49.4 min and 8.2 min, respectively.

As for `CC(=O)Nc1ccc2c(C(CC(F)(F)F)c3cccs3)c(-c3ccccc3)[nH]c2c1` (racemic), on Cannabinoid receptor 1 [1], the Activity was less than 50%.

For the compound `CC(=O)c1ccc(-c2[nH]c3cc(Cl)ccc3c2C(C[N+](=O)[O-])c2cccs2)cc1` (racemic), the Activity on Cannabinoid receptor 1 [1] was less than 50%.

Regarding `CN(C)c1ccc(-c2[nH]c3cc(Cl)ccc3c2C(C[N+](=O)[O-])c2cccs2)cc1` (racemic), the Activity at Cannabinoid receptor 1 [1] was less than 50%.

On to `COC(=O)c1ccc(-c2[nH]c3cc(Cl)ccc3c2C(C[N+](=O)[O-])c2cccs2)cc1` (racemic), for which the Activity on Cannabinoid receptor 1 [1] was less than 50%.

For `COc1ccc(-c2[nH]c3cc(Cl)ccc3c2C(C[N+](=O)[O-])c2cccs2)cc1` (racemic), on Cannabinoid receptor 1 [1], the Activity was less than 50%.

Regarding `COc1cccc(-c2[nH]c3cc(Cl)ccc3c2C(C[N+](=O)[O-])c2cccs2)c1` (racemic), the Activity at Cannabinoid receptor 1 [1] was less than 50%.

Take `CS(=O)(=O)Nc1ccc2c(C(CC(F)(F)F)c3cccs3)c(-c3ccccc3)[nH]c2c1` (racemic): the Activity on Cannabinoid receptor 1 [1] was less than 50%.

`CS(=O)(=O)c1ccc(-c2[nH]c3cc(Cl)ccc3c2C(C[N+](=O)[O-])c2cccs2)cc1` (racemic): on Cannabinoid receptor 1 [1], the Activity is less than 50%.

As to `Cc1ccc2[nH]c(-c3ccccc3)c(C(CC(F)(F)F)c3ccccc3)c2c1` (racemic), the Activity at Cannabinoid receptor 1 [1] was less than 50%.

As for `Cc1ccc2[nH]c(-c3ccccc3)c(C(CC(F)(F)F)c3cccs3)c2c1` (racemic), the Activity on Cannabinoid receptor 1 [1] was less than 50%.

For `Cc1ccc2[nH]c(-c3ccccc3)c(C(C[N+](=O)[O-])c3cccs3)c2c1` (racemic), the Activity at Cannabinoid receptor 1 [3] was more than 50%.

As to `Cc1ccc2c(C(CC#N)c3ccccc3)c(-c3ccccc3)[nH]c2c1` (racemic), the Activity at Cannabinoid receptor 1 [3] is more than 50%.

On to `Cc1ccc2c(C(CC(F)(F)F)c3ccco3)c(-c3ccccc3)[nH]c2c1` (racemic), for which the Activity at Cannabinoid receptor 1 [3] was more than 50%.

For the compound `Cc1ccc2c(C(CC3CC3)CC(F)(F)F)c(-c3ccccc3)[nH]c2c1` (racemic), the Activity at Cannabinoid receptor 1 [3] was more than 50%.

Regarding `Cc1ccc2c(C(C[N+](=O)[O-])c3cccs3)c(-c3ccc(F)cc3)[nH]c2c1` (racemic), the Activity at Cannabinoid receptor 1 [1] was less than 50%.

Consider `Cc1ccc2c(C(C[N+](=O)[O-])c3cccs3)c(C3CC3)[nH]c2c1` (racemic), for which, at Cannabinoid receptor 1 [3], the Activity is more than 50%.

As for `Cc1ccc2c(C(C[N+](=O)[O-])c3cccs3)c(C3CCCC3)[nH]c2c1` (racemic), the Activity on Cannabinoid receptor 1 [3] was more than 50%.

`Cc1ccc2c(C(C[N+](=O)[O-])c3cccs3)c(C3CCCCC3)[nH]c2c1` (racemic): the Activity on Cannabinoid receptor 1 [1] was less than 50%.

Consider `Cc1ccc2c(C(c3ccccc3)C(C#N)C#N)c(-c3ccccc3)[nH]c2c1` (racemic), for which the Activity on Cannabinoid receptor 1 [3] was more than 50%.

Turning to `FC(F)(F)CC(c1ccccc1)c1c(-c2ccccc2)[nH]c2ccccc12` (racemic), the Activity on Cannabinoid receptor 1 [1] is 30 to 50%; at Cannabinoid receptor 1 [3] it was more than 50%.

As to `N#CC(C#N)C(c1ccccc1)c1c(-c2ccccc2)[nH]c2ccccc12` (racemic), the Activity at Cannabinoid receptor 1 [1] was less than 50%.

With `N#CCC(c1ccccc1)c1c(-c2ccccc2)[nH]c2ccccc12` (racemic), at Cannabinoid receptor 1 [1], the Activity is less than 50%.

In the case of `N#Cc1ccc(-c2[nH]c3cc(Cl)ccc3c2C(C[N+](=O)[O-])c2cccs2)cc1` (racemic), the Activity at Cannabinoid receptor 1 [1] is less than 50%.

In the case of `N#Cc1ccc2c(C(C[N+](=O)[O-])c3cccs3)c(-c3ccccc3)[nH]c2c1` (racemic), at Cannabinoid receptor 1 [3], the Activity was more than 50%.

For the compound `N#Cc1cccc(-c2[nH]c3cc(Cl)ccc3c2C(C[N+](=O)[O-])c2cccs2)c1` (racemic), the Activity on Cannabinoid receptor 1 [1] is less than 50%.

On to `Nc1ccc2c(C(CC(F)(F)F)c3cccs3)c(-c3ccccc3)[nH]c2c1` (racemic), for which the Activity on Cannabinoid receptor 1 [1] was less than 50%.

`O=C(C(c1ccccc1)c1c(-c2ccccc2)[nH]c2ccccc12)C(F)(F)F` (racemic): at Cannabinoid receptor 1 [1], the Activity fell in the range of 30 to 50%.

In the case of `O=C(O)CC(c1ccccc1)c1c(-c2ccccc2)[nH]c2ccccc12` (racemic) [listing 2 of 2 here], on Cannabinoid receptor 1 [1], the Activity was less than 50%.

Turning to `O=C(O)c1ccc(-c2[nH]c3cc(Cl)ccc3c2C(C[N+](=O)[O-])c2cccs2)cc1` (racemic), on Cannabinoid receptor 1 [1], the Activity was less than 50%.

In the case of `O=C(O)c1ccc2c(C(CC(F)(F)F)c3cccs3)c(-c3ccccc3)[nH]c2c1` (racemic), at Cannabinoid receptor 1 [1], the Activity was less than 50%.

As to `O=[N+]([O-])CC(c1cccs1)c1c(-c2ccc(Cl)cc2)[nH]c2cc(Cl)ccc12` (racemic), the Activity on Cannabinoid receptor 1 [1] is less than 50%.

As to `O=[N+]([O-])CC(c1cccs1)c1c(-c2ccc(F)cc2)[nH]c2cc(Cl)ccc12` (racemic), the Activity on Cannabinoid receptor 1 [1] is less than 50%.

As for `O=[N+]([O-])CC(c1cccs1)c1c(-c2ccccc2)[nH]c2ccc([N+](=O)[O-])cc12` (racemic), on Cannabinoid receptor 1 [1], the Activity is less than 50%.

In the case of `OCC(c1ccccc1)c1c(-c2ccccc2)[nH]c2ccccc12` (racemic), the Activity on Cannabinoid receptor 1 [1] is less than 50%.

With `OCc1ccc2c(C(CC(F)(F)F)c3cccs3)c(-c3ccccc3)[nH]c2c1` (racemic), the Activity at Cannabinoid receptor 1 [1] was less than 50%.

`O=C(O)CC(c1ccccc1)c1c(-c2ccccc2)[nH]c2ccccc12` (single isomer, unassigned; (+)): on Cannabinoid receptor 1 [1], the Activity was less than 50%.

With `O=C(O)CC(c1ccccc1)c1c(-c2ccccc2)[nH]c2ccccc12` (stereo in doubt; (-)-26), the Activity on Cannabinoid receptor 1 [1] is less than 50%.

For the origin of these results see ChEMBL document CHEMBL4350967, “The Trifluoromethyl Group as a Bioisosteric Replacement of the Aliphatic Nitro Group in CB1 Receptor Positive Allosteric Modulators” (J Med Chem, 2019).
